According to US7795261B2, “Substituted 1-piperidin-4-yl-4-pyrrolidin-3-yl-piperazine derivatives and their use as neurokinin antagonists” (Janssen Pharmaceutica NV, priority 2002, dated 2010):

How the values were obtained:
Type in all cases: cell-based
NK2 = molecular target: T1, NK2 (Homo sapiens, UniProt P21452); experiment: Signal transduction (ST), intracellular Ca++ (FLIPR), NK2; details: read-out: pIC50 NK2 (converted)
T1 sequence (P21452 1-398): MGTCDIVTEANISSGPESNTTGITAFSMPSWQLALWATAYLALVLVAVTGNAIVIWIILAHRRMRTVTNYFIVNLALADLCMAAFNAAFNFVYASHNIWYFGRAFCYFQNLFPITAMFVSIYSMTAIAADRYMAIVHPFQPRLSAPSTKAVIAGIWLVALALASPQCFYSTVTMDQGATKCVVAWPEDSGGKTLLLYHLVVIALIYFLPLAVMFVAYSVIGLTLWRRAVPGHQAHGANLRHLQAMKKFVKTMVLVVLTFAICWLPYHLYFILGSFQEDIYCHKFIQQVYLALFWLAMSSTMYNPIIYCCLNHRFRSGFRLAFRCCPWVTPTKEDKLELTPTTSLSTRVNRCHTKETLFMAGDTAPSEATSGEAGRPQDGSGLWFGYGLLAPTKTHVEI

NK3 = molecular target: T2, NK3 (Homo sapiens, UniProt P29371); experiment: Signal transduction (ST), intracellular Ca++ (FLIPR), NK3; details: read-out: pIC50 NK3 (converted)
T2 sequence (P29371 1-465): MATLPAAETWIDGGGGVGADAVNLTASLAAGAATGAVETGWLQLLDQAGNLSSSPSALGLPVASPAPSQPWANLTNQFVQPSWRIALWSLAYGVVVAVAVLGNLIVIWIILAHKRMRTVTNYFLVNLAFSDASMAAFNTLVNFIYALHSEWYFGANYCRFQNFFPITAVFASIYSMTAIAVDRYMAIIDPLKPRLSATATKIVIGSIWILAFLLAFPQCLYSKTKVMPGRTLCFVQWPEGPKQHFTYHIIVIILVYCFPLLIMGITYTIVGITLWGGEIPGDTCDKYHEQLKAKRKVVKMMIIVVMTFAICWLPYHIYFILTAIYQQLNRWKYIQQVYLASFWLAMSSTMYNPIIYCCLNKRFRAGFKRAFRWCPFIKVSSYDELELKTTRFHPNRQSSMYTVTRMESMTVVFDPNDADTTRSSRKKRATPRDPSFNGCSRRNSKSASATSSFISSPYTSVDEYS

NK1 = NK1 (Homo sapiens, UniProt P25103); experiment: Signal transduction (ST), intracellular Ca++ (FLIPR), NK1 antagonistic activity; details: read-out: pIC50 NK1 (converted)
Procedure, shortened: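 Antagonist IC50 was fitted by non-linear regression of peak intracellular Ca++ signals measured on FLIPR after agonist challenge. Beforehand, Fluo3-loaded confluent cells received antagonists over a concentration range for 20 min at room temperature in Ca++ Krebs buffer, pH 7.4.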

Sequence of NK1 (P25103 whole entry): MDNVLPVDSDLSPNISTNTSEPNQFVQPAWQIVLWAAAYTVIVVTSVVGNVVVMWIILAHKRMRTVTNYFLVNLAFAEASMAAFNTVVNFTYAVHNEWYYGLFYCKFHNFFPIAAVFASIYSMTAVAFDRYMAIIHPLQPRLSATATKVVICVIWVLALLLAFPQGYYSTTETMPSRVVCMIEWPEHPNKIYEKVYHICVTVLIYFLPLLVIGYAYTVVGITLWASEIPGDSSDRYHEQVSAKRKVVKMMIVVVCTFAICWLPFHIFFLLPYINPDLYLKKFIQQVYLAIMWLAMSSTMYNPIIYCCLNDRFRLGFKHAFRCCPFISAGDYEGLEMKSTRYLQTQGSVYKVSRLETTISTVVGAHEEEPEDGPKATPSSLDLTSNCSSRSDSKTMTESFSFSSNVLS

SMILES | IC50 (NK2) [nM] | IC50 (NK3) [nM] | IC50 (NK1) [nM]
O=C(c1c(Cl)cccc1Cl)N1CC[C@@H](N2CCN([C@H]3CCN(C(=O)c4cc(C(F)(F)F)cc(C(F)(F)F)c4)[C@H](Cc4ccc(Cl)c(Cl)c4)C3)CC2)C1 [Compound 265] | 1580 | 158 | 20
O=C(c1ccccc1Cl)N1CC[C@@H](N2CCN([C@H]3CCN(C(=O)c4cc(C(F)(F)F)cc(C(F)(F)F)c4)[C@H](Cc4ccc(Cl)c(Cl)c4)C3)CC2)C1 [Compound 266] | 1000 | 316 | 7.94
O=C(c1ccco1)N1CC[C@@H](N2CCN([C@H]3CCN(C(=O)c4cc(C(F)(F)F)cc(C(F)(F)F)c4)[C@H](Cc4ccc(Cl)c(Cl)c4)C3)CC2)C1 [Compound 267] | 631 | 200 | 7.94
N#Cc1ccc(C(=O)N2CCC(N3CCN([C@H]4CCN(C(=O)c5cc(C(F)(F)F)cc(C(F)(F)F)c5)[C@H](Cc5ccccc5)C4)CC3)C2)cc1 (stereo partly drawn) [Compound 271] | 5010 | 2000 | 6.31
O=C(C(O)c1ccccc1)N1CCC(N2CCN([C@H]3CCN(C(=O)c4cc(C(F)(F)F)cc(C(F)(F)F)c4)[C@H](Cc4ccccc4)C3)CC2)C1 (stereo partly drawn) [Compound 275] | 2510 | 5010 | 10
O=C(c1cc(C(F)(F)F)cc(C(F)(F)F)c1)N1CC[C@H](N2CCN(C3CCN(C(=O)C4(O)CC4)C3)CC2)C[C@H]1Cc1ccccc1 (stereo partly drawn) [Compound 276] | 3160 | 5010 | 10
O=C(c1ccsc1)N1CCC(N2CCN(C3CCN(C(=O)c4cc(C(F)(F)F)cc(C(F)(F)F)c4)C(Cc4ccc(F)cc4)C3)CC2)C1 (stereo not drawn) [Compound 278] | 3980 | 2000 | 15.8
COc1ccc(S(=O)(=O)N2CCC(N3CCN([C@H]4CCN(C(=O)c5cc(C(F)(F)F)cc(C(F)(F)F)c5)[C@H](Cc5ccccc5)C4)CC3)C2)cc1 (stereo partly drawn) [Compound 280] | 1260 | 3980 | 15.8
Cn1cnc(C(=O)N2CCC(N3CCN([C@H]4CCN(C(=O)c5cc(C(F)(F)F)cc(C(F)(F)F)c5)[C@H](Cc5ccccc5)C4)CC3)C2)c1 (stereo partly drawn) [Compound 282] | 3980 | 3980 | 12.6
N#Cc1ccc(NC(=O)N2CCC(N3CCN([C@H]4CCN(C(=O)c5cc(C(F)(F)F)cc(C(F)(F)F)c5)[C@H](Cc5ccccc5)C4)CC3)C2)cc1 (stereo partly drawn) [Compound 283] | 3980 | 2510 | 25.1
O=C(c1ccsc1)N1CC[C@@H](N2CCN([C@H]3CCN(C(=O)c4cc(C(F)(F)F)cc(C(F)(F)F)c4)[C@H](Cc4ccc(Cl)c(Cl)c4)C3)CC2)C1 [Compound 287] | 1260 | 251 | 12.6
O=C(c1ccoc1)N1CC[C@@H](N2CCN([C@H]3CCN(C(=O)c4cc(C(F)(F)F)cc(C(F)(F)F)c4)[C@H](Cc4ccc(Cl)c(Cl)c4)C3)CC2)C1 [Compound 288] | 1580 | 794 | 7.94
O=C(c1cc(C(F)(F)F)cc(C(F)(F)F)c1)N1CC[C@H](N2CCN(C3CCN(S(=O)(=O)c4sccc4COCc4ccccc4)C3)CC2)C[C@H]1Cc1ccccc1 (stereo partly drawn) [Compound 292] | 794 | 794 | 100
CC(C)NC(=O)N1CCC(N2CCN([C@H]3CCN(C(=O)c4cc(C(F)(F)F)cc(C(F)(F)F)c4)[C@H](Cc4ccccc4)C3)CC2)C1 (stereo partly drawn) [Compound 293] | 6310 | 5010 | 15.8
CC(C)(C)C(=O)N1CCCCC1C(=O)N1CCC(N2CCN([C@H]3CCN(C(=O)c4cc(C(F)(F)F)cc(C(F)(F)F)c4)[C@H](Cc4ccccc4)C3)CC2)C1 (stereo partly drawn) [Compound 297] | 2510 | 1260 | 6.31
O=C(C1CCCCC1)N1CC[C@@H](N2CCN([C@H]3CCN(C(=O)c4cc(C(F)(F)F)cc(C(F)(F)F)c4)[C@H](Cc4ccc(Cl)c(Cl)c4)C3)CC2)C1 [Compound 299] | 2510 | 794 | 7.94
O=C(c1cc(C(F)(F)F)cc(C(F)(F)F)c1)N1CC[C@H](N2CCN(C3CCN(S(=O)(=O)c4ccc(O)cc4)C3)CC2)C[C@H]1Cc1ccccc1 (stereo partly drawn) [Compound 303] | 631 | 3160 | 6.31
O=C(c1cc(C(F)(F)F)cc(C(F)(F)F)c1)N1CC[C@H](N2CCN(C3CCN(S(=O)(=O)c4ccccc4O)C3)CC2)C[C@H]1Cc1ccccc1 (stereo partly drawn) [Compound 307] | 1260 | 1260 | 15.8
CN(C(=O)C1CC1)C(C)(C)C(=O)N1CCC(N2CCN(C3CCN(C(=O)c4cc(C(F)(F)F)cc(C(F)(F)F)c4)C(Cc4ccccc4)C3)CC2)C1 (stereo not drawn) [Compound 310] | 2000 | 3980 | 7.94
O=C(C1CC1)N1CC[C@H](N2CCN([C@H]3CCN(C(=O)c4cc(C(F)(F)F)cc(C(F)(F)F)c4)[C@H](Cc4ccc(Cl)c(Cl)c4)C3)CC2)C1 [Compound 312] | 1580 | 501 | 7.94
CC(C)(C)C(=O)N1CC[C@H](N2CCN([C@H]3CCN(C(=O)c4cc(C(F)(F)F)cc(C(F)(F)F)c4)[C@H](Cc4ccc(Cl)c(Cl)c4)C3)CC2)C1 [Compound 313] | 631 | 251 | 3.98
O=C(c1ccccc1Cl)N1CC[C@H](N2CCN([C@H]3CCN(C(=O)c4cc(C(F)(F)F)cc(C(F)(F)F)c4)[C@H](Cc4ccc(Cl)c(Cl)c4)C3)CC2)C1 [Compound 315] | 501 | 631 | 5.01

Further lines, results first:

IC50 (NK2) [nM] | IC50 (NK3) [nM] | IC50 (NK1) [nM] | SMILES
251 | 1000 | 20 | O=C(c1cc(C(F)(F)F)cc(C(F)(F)F)c1)N1CC[C@H](N2CCN([C@@H]3CCN(S(=O)(=O)c4cccs4)C3)CC2)C[C@H]1Cc1ccc(Cl)c(Cl)c1 [Compound 268]
3980 | 2000 | 15.8 | O=C(c1ccccc1Cl)N1CCC(N2CCN(C3CCN(C(=O)c4cc(C(F)(F)F)cc(C(F)(F)F)c4)C(Cc4ccc(F)cc4)C3)CC2)C1 (stereo not drawn) [Compound 279]
5010 | 3980 | 12.6 | O=C(Nc1ccccc1F)N1CCC(N2CCN([C@H]3CCN(C(=O)c4cc(C(F)(F)F)cc(C(F)(F)F)c4)[C@H](Cc4ccccc4)C3)CC2)C1 (stereo partly drawn) [Compound 284]
1000 | 398 | 6.31 | O=C(c1cnccn1)N1CC[C@@H](N2CCN([C@H]3CCN(C(=O)c4cc(C(F)(F)F)cc(C(F)(F)F)c4)[C@H](Cc4ccc(Cl)c(Cl)c4)C3)CC2)C1 [Compound 286]
2000 | 794 | 7.94 | CC(C)(C)C(=O)N1CC[C@@H](N2CCN([C@H]3CCN(C(=O)c4cc(C(F)(F)F)cc(C(F)(F)F)c4)[C@H](Cc4ccc(Cl)c(Cl)c4)C3)CC2)C1 [Compound 289]
2000 | 316 | 15.8 | O=C(C1CCCCN1C(=O)c1ccccc1Cl)N1CCC(N2CCN(C3CCN(C(=O)c4cc(C(F)(F)F)cc(C(F)(F)F)c4)C(Cc4ccccc4)C3)CC2)C1 (stereo not drawn) [Compound 295]
1580 | 794 | 6.31 | O=C(C1CCCCN1C(=O)C1CC1)N1CCC(N2CCN([C@H]3CCN(C(=O)c4cc(C(F)(F)F)cc(C(F)(F)F)c4)[C@H](Cc4ccccc4)C3)CC2)C1 (stereo partly drawn) [Compound 296]
794 | 2000 | 10 | COc1ccccc1S(=O)(=O)N1CCC(N2CCN([C@H]3CCN(C(=O)c4cc(C(F)(F)F)cc(C(F)(F)F)c4)[C@H](Cc4ccccc4)C3)CC2)C1 (stereo partly drawn) [Compound 300]
2510 | 1000 | 7.94 | N#CN=C(N1CCCC1)N1CCC(N2CCN([C@H]3CCN(C(=O)c4cc(C(F)(F)F)cc(C(F)(F)F)c4)[C@H](Cc4ccccc4)C3)CC2)C1 (stereo partly drawn) [Compound 302]
1580 | 158 | 10 | CN(C(=O)OC(C)(C)C)C(C)(C)C(=O)N1CCC(N2CCN(C3CCN(C(=O)c4cc(C(F)(F)F)cc(C(F)(F)F)c4)C(Cc4ccccc4)C3)CC2)C1 (stereo not drawn) [Compound 304]
200 | 251 | 7.94 | O=C(c1cc(C(F)(F)F)cc(C(F)(F)F)c1)N1CC[C@H](N2CCN(C3CCN(S(=O)(=O)c4sccc4CO)C3)CC2)C[C@H]1Cc1ccccc1 (stereo partly drawn) [Compound 308]
1260 | 501 | 15.8 | O=C(C1CCCCC1)N1CC[C@H](N2CCN([C@H]3CCN(C(=O)c4cc(C(F)(F)F)cc(C(F)(F)F)c4)[C@H](Cc4ccc(Cl)c(Cl)c4)C3)CC2)C1 [Compound 314]
